From article PMC7901646, “Pyrrolo[2′,3′:3,4]cyclohepta[1,2-d][1,2]oxazoles, a New Class of Antimitotic Agents Active against Multiple Malignant Cell Types” (Journal of Medicinal Chemistry, 2020)

Columns and labels:
Type in all cases: cell-based
cdc25c = assay: Western blot, G2/M checkpoint proteins; settings: HeLa, 0.5 μM
Description: (§1) Figure 6 Effects of 66 on G2/M checkpoint proteins. HeLa cells were treated with 0.1 or 0.5 μM compound 66 for 24 or 48 h. The cells were harvested and lysed for the detection of cdc25c, p-cdc2^Y15, and cyclin B expression by Western blot analysis. To confirm equal protein loading, each membrane was stripped and reprobed with anti-GAPDH antibody. The relative expression of proteins was analyzed by scanning densitometry using ImageJ software and reported as a ratio protein/GAPDH.
(§2) HeLa cells were incubated in the presence of the test compound and, after different times, were collected, centrifuged, and washed two times with ice cold PBS. The pellet was resuspended in lysis buffer. After the cells were lysed on ice for 30 min, lysates were centrifuged at 15 000g at 4 °C for 10 min. The protein concentration in the supernatant was determined using the BCA protein assay reagents (Pierce, Italy). Equal amounts of protein (10 μg) were resolved using sodium dodecyl sulfate–polyacrylamide gel electrophoresis (Criterion Precast, BioRad, Italy) and transferred to a PVDF Hybond-P membrane (GE Healthcare). Membranes were blocked with a bovine serum albumin solution (5% in Tween PBS 1×), and the membranes were gently rotated overnight at 4 °C in the albumin solution. Membranes were then incubated with primary antibodies against PARP cleaved fragment, cdc25c, cyclin B, p-cdc2^Tyr15, XIAP, and Mcl-1 (all from Cell Signaling) or GAPDH (Sigma-Aldrich) for 2 h at room temperature. Membranes were next incubated with peroxidase labeled secondary antibodies for 1 h. All membranes were visualized using ECL Select (GE Healthcare), and images were acquired using an Uvitec-Alliance imaging system (Uvitec, Cambridge, U.K.). To ensure equal protein loading, each membrane was stripped and reprobed with anti-GAPDH antibody. To obtain relative quantitative data, ImageJ software (NIH, USA) was used for scanning densitometry analysis of Western blots.

cyclin B1 = assay: Western blot, G2/M checkpoint proteins; settings: HeLa, 24 h, 0.5 μM
Description: as §1, §2

phosphorylated cdc2 = assay: Western blot, G2/M checkpoint proteins; settings: HeLa, after both 24 and 48 h
Description: as §1, §2

HeLa cells [1] = assay: Annexin-V/PI apoptosis assay
Description: To analyze the mode of cell death induced by compound 66 in HeLa cells, we utilized a double labeling assay of the cells with annexin-V and PI. This procedure, through a flow cytometric analysis, distinguishes four different cell populations: live cells (annexin-V^–/PI^–), early apoptotic cells (annexin-V^+/PI^–), late apoptotic cells (annexin-V^+/PI^+), and necrotic cells (annexin-V^–/PI^+).
Cell death was determined by flow cytometry of cells double stained with annexin V/FITC and PI. The Coulter Cytomics FC500 (Beckman Coulter) was used to measure the surface exposure of phosphatidylserine on apoptotic cells according to the manufacturer’s instructions (Annexin-V Fluos, Roche Diagnostics).

HeLa cells [2] = assay: Mitochondrial membrane potential (JC-1); settings: 0.1 and 0.5 μM, 24 or 48 h
Description: The mitochondrial membrane potential was measured with the lipophilic cationic dye 5,5′,6,6′ tetrachlo-1,1′,3,3′-tetraethylbenzimidazolcarbocyanine (JC-1) (Molecular Probes), as described.[73] The method is based on the ability of this fluorescent probe to enter selectively into mitochondria since it changes reversibly its color from green to red as membrane potential increases. This property is due to the reversible formation of JC-1 aggregates upon membrane polarization that causes a shift in the emitted light from 530 nm (i.e., emission of JC-1 monomeric form) to 590 nm (emission of JC-1-aggregate) when excited at 490 nm.

HeLa cells [3] = assay: ROS production (H2-DCFDA); settings: 48 h, 0.5 μM
Description: One consequence of mitochondrial depolarization caused by the release of cytochrome c into the cytoplasm is the increase in reactive oxygen species (ROS).[65] Therefore, we wanted to evaluate whether ROS production increased following treatment with compound 66. To do this, we used the fluorescent probe 2,7-dichlorodihydrofluorescein diacetate (H2-DCFDA), which is oxidized to the fluorescent compound dichlorofluorescein (DCF) upon ROS production.
The production of ROS was measured by flow cytometry using H2DCFDA (Molecular Probes), as previously described.[59] Briefly, after different times of treatment, cells were collected by centrifugation and resuspended in PBS containing H2DCFDA at the concentration of 0.1 μM. The cells were then incubated for 30 min at 37 °C, centrifuged, and resuspended in PBS. The fluorescence was directly recorded with the flow cytometer, using as excitation wavelength 488 nm and emission at 530 nm.

Mcl-1 = assay: Western blot, apoptosis proteins; settings: HeLa, 0.1 or 0.5 μM, 24 or 48 h
Description: (§3) To study in greater detail the apoptotic process induced by 66, we evaluated the expression of the cleaved fragment of poly(ADP)ribose polymerase (PARP), a common marker of apoptosis,[66] by Western blot analysis. HeLa cells were treated with compound 66 at 0.1 or 0.5 μM for 24 or 48 h. The cleavage fragment of PARP appeared at 24 h after beginning treatment with only 0.1 μM 66. The expression of two antiapoptotic proteins, Mcl-1 and XIAP, was also studied. Mcl-1, a member of the Bcl-2 family, is highly expressed in many types of tumors and takes part in the apoptotic response to multiple stimuli. […] Similarly, expression of Xiap, a member of the family of inhibitors of apoptosis proteins, was reduced (at 24 h) and diappeared (at 48 h) after HeLa cell treatment with 66 (Figure 9). The functions of this protein are to inhibit the activity of caspase-3, caspase-7, and caspase-9 through a direct interaction with these enzymes. Following this interaction, the entire apoptotic process is inhibited.[69]
as §2

PARP = assay: Western blot, apoptosis proteins; settings: HeLa, 24 h, 0.1 μM
Description: as §3, §2

XIAP = assay: Western blot, apoptosis proteins; settings: HeLa
Description: as §3, §2

UACC-257 = assay: NCI-60 screen; settings: Homo sapiens, Melanoma
Method in brief: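 Each compound is applied at one concentration, 10^–5 M, to the nine-tissue NCI-60 human cancer cell line panel, and growth-inhibitory activity is recorded per line.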

CCOC(=O)c1cc2c(n1Cc1cc(OC)cc(OC)c1)-c1oncc1CCC2 [Compound 66, Ethyl 9-(3,5-Dimethoxybenzyl)-4,5,6,9-tetrahydropyrrolo[2′,3′:3,4]cyclohepta[1,2-d][1,2]oxazole-8-carboxylate]
total cdc25c expression (cdc25c): strongly reduced
cyclin B1 expression (cyclin B1): substantial increase
expression of phosphorylated cdc2 (phosphorylated cdc2): strongly decreased
apoptotic cells (HeLa cells [1]; 24 h, 0.5 μM): significant increase
necrotic cells (HeLa cells [1]; 48 h): substantial increase
percentage of cells with low Δψmt (HeLa cells [2]): significant increase
ROS production (HeLa cells [3]): induced the production of ROS
Mcl-1 levels (Mcl-1): reduction
cleavage fragment of PARP (PARP): appeared
expression of Xiap (XIAP; 24 h): reduced
expression of Xiap (XIAP; 48 h): diappeared

CCOC(=O)c1cc2c(n1Cc1cccc(OC)c1)-c1oncc1CCC2 [Compound 63, Ethyl 9-(3-Methoxybenzyl)-4,5,6,9-tetrahydropyrrolo[2′,3′:3,4]cyclohepta[1,2-d][1,2]oxazole-8-carboxylate]
GI50 (UACC-257): 7.61 µM
